Test: plasma hydrolysis of prodrug esters of (−) CPTA
Format: in vitro ADME
Conditions: human plasma (heparinized, pooled), 37° C., 125 or 250 μM prodrug; read-out: Plasma T1/2
Method: This example illustrates the plasma hydrolysis of various prodrug esters of the (S)-enantiomer of CPTA at physiological conditions. Hydrolysis was monitored and analyzed by HPLC. The hydrolytic product was identified by comparison to authentic (−) CPTA and the hydrolytic rates were calculated.
Human plasma (heparinized, pooled) was obtained from Golden West Biololgicals Inc., USA; Plasma incubation was carried out in a Water Bath Shaker (New Brunswick Scientific, Inc.); Sample analyses were carried out on Agilent HPLC 1100 system.
Prepare 31.25 or 62.5 mM prodrug stock solutions in 100% DMSO. Add 4 μL of 31.25 or 62.5 mM prodrug stock solutions to 1.0 mL of plasma in a microcentrifuge tube to make plasma concentration at 125 or 250 μM, mix gently. Aliquots of 50 μL are transferred to 15 microcentrifuge vials. Three samples are immediately removed to a freezer at about −80° C. (0 time point), the remaining samples are incubated in a bath shaker at 37° C. Three samples are removed at 30 min, 2, 7 and 24 hr, and stored at −80° C. until analysis. The relative concentrations of MBX-compounds are determined by HPLC methods. If there are enough data points, the hydrolytic rate can be calculated using WinNonlin software. Table 10 provides a summary of plasma half-lives of some pro-drug esters and FIGS. 20A-20G illustrate the hydrolytic curves of those prodrug esters. […]

In the case of `C=C/C=C(\C=C)C(=O)NCCOC(=O)C(Oc1cccc(C(F)(F)F)c1)c1ccc(Cl)cc1` (stereo not shown) [Compound 19.4], the half-life is reported as < 60 min.

Reference: patent US20080194646A1, “Methods For Avoiding Edema in the Treatment of Metabolic, Inflammatory, and Cardiovascular Disorders” (priority 2005, published 2008)
